Source: patent publication US11466036B2, “Borate of azetidine derivative” (Chia Tai Tianqing Pharmaceutical Group Co., Ltd., priority 2018, dated 2022)
pIC50: −log10 of the molar value.

Tests used:
MM1.S cells = experiment: In vitro anti-proliferation experiment for MM1.S cells (CellTiter-Glo); type: cell-based; details: Homo sapiens, 48 h, 2 days incubation, 0.3 nM-2000 nM
Description: In Vitro Anti-Proliferation Experiment for MM1.S Cells
In this experiment, the effect of compounds on inhibiting cell proliferation was investigated by determining their effect on cell activity in vitro in the tumor cell line MM1.S.
MM1.S cells were seeded into a black 96-well cell culture plate at a density of 7,000 cells per well, and the plates were then incubated overnight in an incubator at 37° C., 5% CO2 and 100% relative humidity. Test compounds were added to the cell culture wells at a concentration (0.3 nM-2000 nM) and the plate was then put back into the incubator with vehicle control (DMSO added, no test compound) and blank control set. The plate was incubated for 2 days in an incubator at 37° C., 5% CO2 and 100% relative humidity. Samples were processed using a standard method of the Promega CellTiter-Glo luminescence cell activity detection kit (Promega-G7571) and luminescence signals were detected on a SpectraMax i3× of Molecular Devices plate reader. The inhibition rate of the test compound was calculated using the following formula: […]

[1] = Liver microsomal stability test, mouse; type: in vitro ADME, CD-1 mice; details: CD-1; mouse (M) liver microsomes; read-out: Liver microsomal stability (T1/2, min)
Description: (§1) Experimental Example 2: Liver Microsomal Stability Test for Compounds
(§2) Test compounds were each co-incubated with liver microsomes from CD-1 mice, SD rats, and humans to evaluate the stability of the test compounds.
(§3) Preparation of test compound solution samples: a 10 mM DMSO solution of the example compound (5 μL) was added to a mixed solvent of DMSO (45 μL), methanol and water (450 μL, volume ratio of methanol and water was 1:1) to prepare a 100 μM test compound solution; 50 μL of the 100 μM test compound solution was added to 450 μL of 100 mM potassium phosphate buffer to give a 10 μM test compound solution.
(§4) The 10 μM test compound solution was preincubated with microsomes of three species (human, rat and mouse, respectively) for 10 minutes, and then reduced nicotinamide adenine dinucleotide phosphate (NADPH) regeneration system working solution was added to the incubation plate according to each time point to initiate the reaction, and finally at 0, 5, 10, 20, 30 and 60 minutes, stop solution (100% ACN) was added to the reaction plate to stop the reaction. The test compounds were determined using LC-MS/MS method.

MDR1 = experiment: Cell membrane permeability test on MDR1-MDCK II cells; type: in vitro ADME; details: dog; for efflux ratio at 150 min, 2 μM: MDCK-MDR1, pH 7.4, Papp B to A/Papp A to B; for Papp A→B at 150 min, 2 μM / Papp B→A at 150 min, 2 μM: MDCK-MDR1, pH=7.4
Description: Experimental Example 3: Cell Membrane Permeability Test for Compounds
Test compounds were evaluated for cell membrane permeability on MDR1-MDCK II cells.
Test compounds (10 mM DMSO solution of compound) were each diluted with transfer buffer (HBSS with 10 mM Hepes, pH=7.4) and formulated into samples at a final concentration of 2 μM, and then bidirectional (A-B and B-A) administration was performed. After administration, the cell plate was incubated for 150 minutes in an incubator at 37° C., 5% CO2 and saturated humidity. After the 150 minutes of incubation, samples were collected and the concentrations of test compounds in the transfer samples were semi-quantitatively determined using LC-MS/MS method.

[2] = Liver microsomal stability test, rat; type: in vitro ADME, SD rats; details: SD; rat (R) liver microsomes; read-out: Liver microsomal stability (T1/2, min)
Description: as §1, §2, §3, §4

[3] = Liver microsomal stability test, human; type: in vitro ADME; details: human (H) liver microsomes; read-out: Liver microsomal stability (T1/2, min)
Description: as §1, §2, §3, §4

[4] = Stability experiment (solid sample in stability boxes, content by HPLC); type: physicochemical
Description: Experimental Example 4: Stability Experiment
About 50 mg of a sample was placed in a clean disposable petri dish and spread into a thin layer. The petri dish was covered with aluminum foil paper which was pricked with several small holes. The sample, in duplicate, was placed in stability boxes of 25° C.±2° C./60% RH±5% RH and 40° C.±2° C./75% RH±5% RH, respectively, and sampled at the planned time points, and the content of the compound was determined using the HPLC method, and the results are shown in Table 9.

Compound	pIC50 (MM1.S cells)	half-life [1]	efflux ratio at 150 min, 2 μM (MDR1)	Papp A→B at 150 min, 2 μM (MDR1)	Papp B→A at 150 min, 2 μM (MDR1)	half-life [2]	half-life [3]	further results
CC(C)C[C@H](NC(=O)CNC(=O)[C@@H]1CCN1c1ccc(C#N)cc1F)B(O)O (single isomer, unassigned) [Compound 3-7]	7.04							
CC(C)C[C@H](NC(=O)CNC(=O)[C@@H]1CCN1c1ccc(F)cc1)B(O)O [Compound 1-9]	8.24	43.5 min				42.1 min	74.3 min	
CC(C)C[C@H](NC(=O)CNC(=O)[C@@H]1CCN1c1ncc(F)cc1F)B(O)O [Compound 2-8]	7.62							
CC(C)C[C@H](NC(=O)CNC(=O)[C@@H]1CCN1c1nc(C(F)(F)F)cs1)B(O)O [Compound 2-9]	7.62	37.7 min	9.33	0.24 ×10⁻⁶ cm/s	2.24 ×10⁻⁶ cm/s	26.5 min	75 min	

More lines, main results first:

pIC50 (MM1.S cells)	half-life [1]	efflux ratio at 150 min, 2 μM (MDR1)	Papp A→B at 150 min, 2 μM (MDR1)	Papp B→A at 150 min, 2 μM (MDR1)	half-life [2]	half-life [3]	Compound	further results
9.00	67.4 min	19.3	0.38 ×10⁻⁶ cm/s	7.32 ×10⁻⁶ cm/s	43.1 min	67.4 min	CC(C)C[C@H](NC(=O)CNC(=O)[C@@H]1CCN1c1ccc(F)cc1F)B(O)O (single isomer, unassigned) [Compound 4-9]	
7.89							CC(C)C[C@H](NC(=O)CNC(=O)[C@@H]1CCN1c1ccc(F)cc1F)B1OC(=O)[C@H](CC(=O)O)O1 [Compound I-1]	content of the compound ([4]; 25° C./60% RH, Day 0): 98.6%; content of the compound ([4]; 25° C./60% RH, Day 7): 97.8%; content of the compound ([4]; 25° C./60% RH, Day 14): 100%; content of the compound ([4]; 25° C./60% RH, Day 21): 100%; content of the compound ([4]; 25° C./60% RH, Day 28): 100%; content of the compound ([4]; 40° C./75% RH, Day 0): 98.6%; content of the compound ([4]; 40° C./75% RH, Day 7): 99.1%; content of the compound ([4]; 40° C./75% RH, Day 14): 98.5%; content of the compound ([4]; 40° C./75% RH, Day 21): 100%; content of the compound ([4]; 40° C./75% RH, Day 28): 100%
